Assay results published in ChEMBL document CHEMBL4765421, “Synthesis of natural 3'-Prenylchalconaringenin and biological evaluation of ameliorating non-alcoholic fatty liver disease and metabolic syndrome” (Eur J Med Chem, 2020).
Calls of active or inactive are those of the source. No cut-off for these calls is given here.

Tests used:
3T3-L1 = test: Activation of AMPK in mouse 3T3-L1 matured adipocytes assessed as increase in AMPK phosphorylation at 1 uM by Western blot analysis relative to control; assay type: cell-based; details: filed as activator
Mus musculus = test: Hypolipidemic activity in tyloxapol-induced Kunming mouse model of hyperlipidemia assessed as reduction in serum lipid level at 50 to 100 mg/kg, po measured after 24 hrs by macroscopic analysis; assay type: functional, organism-based; details: dose 50-100 mg/kg

**Q.** Which results are given for `CC(C)=CCC/C(C)=C/Cc1c(O)cc(O)c(C(=O)/C=C/c2ccc(O)cc2)c1O`?
**A.** Activity (3T3-L1): 49%; Activity (Mus musculus): Active
